This note sets out measurements from patent US4505932A, “Method of producing α2 -adrenergic receptor agonist activity” (Abbott Laboratories, priority 1984, dated 1985).

One assay deals with α2 -adrenergic receptors. Type of assay: binding, rat. The following applies: for Ki: rat brain cortex, [3H] rauwolscine, read-out: KIα2 (dissociation constant); for KIα1/KIα2: selectivity ratio, rat liver α1 vs rat brain cortex α2.
The target of another assay is T1, α1 -adrenergic receptors (Rattus norvegicus, UniProt P15823).
T1 construct: from tissue; host or cells: rat liver
T1 sequence (P15823 1-515): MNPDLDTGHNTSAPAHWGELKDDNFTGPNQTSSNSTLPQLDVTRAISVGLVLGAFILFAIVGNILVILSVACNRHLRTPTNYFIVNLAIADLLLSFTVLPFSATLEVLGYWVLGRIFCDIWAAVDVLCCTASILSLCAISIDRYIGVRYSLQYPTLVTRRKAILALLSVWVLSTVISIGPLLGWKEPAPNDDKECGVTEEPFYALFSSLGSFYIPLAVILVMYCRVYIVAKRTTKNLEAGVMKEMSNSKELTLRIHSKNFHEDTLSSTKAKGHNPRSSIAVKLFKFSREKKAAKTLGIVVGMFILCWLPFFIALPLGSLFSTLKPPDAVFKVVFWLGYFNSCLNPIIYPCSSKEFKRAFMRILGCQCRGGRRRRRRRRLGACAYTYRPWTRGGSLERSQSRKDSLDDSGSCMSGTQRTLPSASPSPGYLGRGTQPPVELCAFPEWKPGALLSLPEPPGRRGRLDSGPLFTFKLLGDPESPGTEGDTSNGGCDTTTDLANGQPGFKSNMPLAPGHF
The assay can be described thus: radioligand binding, [3H] prazosin displacement in rat liver. Particulars: read-out: KIα1 (dissociation constant).

Assay [1] has as its system spontaneously hypertensive rat. Put plainly: arterial blood pressure and heart rate in the spontaneously hypertensive rat (tail cuff). Type of assay: in vivo. As to the method:
Two groups of Okamoto rats, which develop hypertension spontaneously when reaching young adulthood, are deprived of food for a period of 16 hours and are placed in semirestraining wire mesh cylinders maintained at a constant temperature of 36° C. An occluding cuff, operatively connected to a programmed sphygmomanometer, is placed over the tail of each rat of the group and retained near the tail base. […] A photocell is placed distal to the cuff to detect pulses resulting from the forward motion of blood flow with each heartbeat of the rat. As the pressure in the cuff increases, measurable pulses disappear at the point where the cuff pressure equals the arterial blood pressure. Measurable pluses reappear during deflation at approximately the same pressure, and arterial blood pressure is thereby established by cuff pressure at the point of pulse appearance. The heart rate is determined from the arterial pulse wave. Doses of 30 or 100 mg./kg. of the preferred compound of Example 6 were administered orally to each rat of the test groups and five interference-free signals were recorded on a Model 7 Grass polygraph for each rat at various measurement periods following administration.

Another assay has as its system α-adrenergic receptor. The assay can be described thus: isolated rabbit aorta contraction, α-adrenergic receptor agonist activity. The following applies: isolated rabbit aorta strip. Type of assay: cell-based. As to the method:
Female rabbits, weighing 2 to 5 kg., are sacrificed by cervical dislocation. The thoracic cavity is immediately opened and the descending aorta is removed and placed in a petrie dish containing an aqueous buffer solution (Krebs buffer) of 119 mM NaCl, 25 mM […], 4.7 mM KCl, 1.5 mM MgSO4, 1.2 mM KH2 PO4, 2.5 mM CaCl2, 11 mM glucose, 0.03 mM EDTA and 0.005 mM sodium ascorbate, adjusted to a pH of 7.4. The buffer solution is continuously aerated with a mixture of 95% O2 and 5% CO2 gases. The aorta is placed on cylindrical sticks and cleaned of excess fat and connective tissue, then cut into 2 tissue segments approximately 20 mm in length. Each segment of aorta is then spiraled in strips 3.5 mm wide by turning the stick as a scapel is applied, while leaving a section of 2-3 mm at each end of the aorta section intact. The spiraled tissue is mounted in an aerated (as above) tissue bath of 10 ml. of Kreb's buffer and is attached to a Grass force transducer with an initial applied tension of 2 grams. The tissue is allowed to equilibrate in the tissue bath at a temperature of 37°±0.5° C. until the tension on the force transducer stabilizes at 2 grams.
The tissue is washed with Krebs buffer until it relaxes to baseline tension.

Where a name gives a salt, the structure may show the parent alone.

In the case of `Clc1cccc(Cl)c1N=C1NCCN1` [Clonidine, clonidine, reference compound], on α2 -adrenergic receptors, the Ki was 34 nM.
For the molecule `CNC[C@H](O)c1ccc(O)c(O)c1` [Epinephrine, epinephrine, reference compound], at α2 -adrenergic receptors, the Ki was found to be 53 nM.
For `CNCC1CCc2c1ccc(O)c2O` (stereo not drawn) [Example 10, 1-N-Methylaminomethyl-4,5-dihydroxy indane hydrobromide], at α2 -adrenergic receptors, the Ki turned out to be 6 nM and the KIα1/KIα2 is reported as 282. For the same molecule, the Ki on α1 -adrenergic receptors was 1690 nM.
As for `NCC1CCc2c1ccc(O)c2O` (stereo not drawn) [B], the Ki at α2 -adrenergic receptors is 15 nM; at α1 -adrenergic receptors, 8620 nM. Further, the KIα1/KIα2 in the assay with α2 -adrenergic receptors worked out at 575.
As for `CN(C)CC1CCc2c1ccc(O)c2O` (stereo not drawn) [Example 6, 1-N,N-Dimethylaminomethyl-4,5-dihydroxy indane hydrobromide], on α2 -adrenergic receptors, the Ki was found to be 25 nM and the KIα1/KIα2 was determined as 276. For the same molecule, the arterial blood pressure entry in assay [1] (30 or 100 mg./kg. orally, Okamoto rats) is listed as “decrease the arterial blood pressure”. In addition, in assay [1] (spontaneously hypertensive rat, oral), the heart rate result is recorded as “decrease”. Also, on α1 -adrenergic receptors, the Ki was 6900 nM. Besides, in the assay with α-adrenergic receptor, the “agonist character (intrinsic activity vs norepinephrine; >75% = full agonist)” value is given as “full agonist”. The EC50 in the assay with α-adrenergic receptor (contraction, read-out: ED50 (concentration producing half maximum response) in aorta strip) was 1600 nM.
